The results in this text go back to ChEMBL document CHEMBL1158859, “Antiprotozoal compounds from Asparagus africanus” (J Nat Prod, 1997).

Assay [1] in a line: Selectivity index, ratio of IC50 for human lymphocyte to IC50 for chloroquine-susceptible Plasmodium falciparum 3D7.
Assay [2] deals with Plasmodium falciparum. The experiment in a line: Antiplasmodial activity against chloroquine-sensitive Plasmodium falciparum K39 after 48 hrs by [3H]hypoxanthine uptake. The class given is functional, organism-based.
For assay [3], the system named is Plasmodium falciparum. The assay can be described thus: Antiplasmodial activity against chloroquine-susceptible Plasmodium falciparum 3D7 after 24 hrs by [3H]hypoxanthine uptake. It counts as functional, organism-based.
A short description of assay [4]: Selectivity index, ratio of IC50 for human lymphocyte to IC50 for chloroquine-resistant Plasmodium falciparum Dd2.
A short description of assay [5]: Selectivity index, ratio of IC50 for human lymphocyte to IC50 for Leishmania major.
Assay [6] relates to Plasmodium falciparum. The experiment in a line: Antiplasmodial activity against Plasmodium falciparum schizonts assessed as [3H]hypoxanthine incorporation by liquid scintillation counting. It counts as functional, organism-based. The following applies: Dd2.
A short description of assay [7]: Selectivity index, ratio of IC50 for human lymphocyte to IC50 for chloroquine-susceptible Plasmodium falciparum K39.
Assay [8] can be described thus: Selectivity index, ratio of IC50 for human lymphocyte to IC50 for chloroquine-resistant Plasmodium falciparum V1/S.
Assay [9] can be described thus: Inhibition of phytohemagglutininin A-induced human lymphocyte proliferation assessed as radiolabeled [14C]thymidine uptake. The class given is cell-based.
For the next assay, the system named is Leishmania major. The assay can be described thus: Antileishmanial activity against Leishmania major promastigotes assessed as inhibition of [3H]thymidine uptake after 18 hrs by scintillation counting. The class given is functional, organism-based.
Assay [10] relates to Plasmodium falciparum. The experiment in a line: Antiplasmodial activity against chloroquine-resistant Plasmodium falciparum V1/S after 48 hrs by [3H]hypoxanthine uptake. The class given is functional, organism-based.
Assay [11] has as its system Plasmodium falciparum. The assay can be described thus: Antiplasmodial activity against chloroquine-resistant Plasmodium falciparum Dd2 after 24 hrs by [3H]hypoxanthine uptake. The class given is functional, organism-based.

Regarding `C[C@@H]1CC[C@@]2(OC1)O[C@H]1C[C@H]3C4=CCC5=CC(=O)[C@@H](O)C[C@]5(C)[C@H]4C[C@H](O)[C@]3(C)[C@H]1[C@@H]2C` [MUZANZAGENIN], the “Ratio IC50” value amounted to 5.6 in assay [1]; 8 in [4]; 1.8 in assay [5]; 2.1 in assay [7]; 0.8 in assay [8]. Besides, the Activity result in the assay with Plasmodium falciparum [2], with Plasmodium falciparum [3], with Plasmodium falciparum [6], with Leishmania major and with Plasmodium falciparum [10] was “Dose-dependent effect” in each case. The IC50 with Plasmodium falciparum [2] was found to be 61 µM; in the assay on Plasmodium falciparum [3] it was 23 µM; in the assay with Plasmodium falciparum [6] it was 16 µM; in assay [9], 129 µM; with Leishmania major it was 70 µM; in the assay with Plasmodium falciparum [10], 163 µM.

For the compound `C=C[C@H](/C=C\c1ccc(O)cc1)c1ccc(O)cc1` [NYASOL], the “Ratio IC50” value in assay [1] came out at 16.7; in [4] it was 16.7; in assay [5] it was 4.1. In addition, the IC50 in the assay with Plasmodium falciparum [3] came to 12 µM; in the assay on Plasmodium falciparum [11], 49 µM; in the assay on Plasmodium falciparum [6] it was 12 µM; in assay [9], 200 µM; in the assay on Leishmania major, 12 µM.
